This is an account of results in patent publication US20250002489A1, “BIFUNCTIONAL COMPOUNDS FOR DEGRADING ITK VIA UBIQUITIN PROTEOSOME PATHWAY” (NURIX THERAPEUTICS, INC., priority 2021, published 2025).

The experiment concerns the target T1, ITK (C-terminal HiBiT-tagged Molt4 cells) (Homo sapiens, UniProt Q08881).
T1 construct: expressed in transfected cells; host or cells: Molt4 (ATCC CRL-1552), monoclonal clone 1C10, engineered to express HiBiT-tagged ITK
T1 sequence (Q08881 1-620): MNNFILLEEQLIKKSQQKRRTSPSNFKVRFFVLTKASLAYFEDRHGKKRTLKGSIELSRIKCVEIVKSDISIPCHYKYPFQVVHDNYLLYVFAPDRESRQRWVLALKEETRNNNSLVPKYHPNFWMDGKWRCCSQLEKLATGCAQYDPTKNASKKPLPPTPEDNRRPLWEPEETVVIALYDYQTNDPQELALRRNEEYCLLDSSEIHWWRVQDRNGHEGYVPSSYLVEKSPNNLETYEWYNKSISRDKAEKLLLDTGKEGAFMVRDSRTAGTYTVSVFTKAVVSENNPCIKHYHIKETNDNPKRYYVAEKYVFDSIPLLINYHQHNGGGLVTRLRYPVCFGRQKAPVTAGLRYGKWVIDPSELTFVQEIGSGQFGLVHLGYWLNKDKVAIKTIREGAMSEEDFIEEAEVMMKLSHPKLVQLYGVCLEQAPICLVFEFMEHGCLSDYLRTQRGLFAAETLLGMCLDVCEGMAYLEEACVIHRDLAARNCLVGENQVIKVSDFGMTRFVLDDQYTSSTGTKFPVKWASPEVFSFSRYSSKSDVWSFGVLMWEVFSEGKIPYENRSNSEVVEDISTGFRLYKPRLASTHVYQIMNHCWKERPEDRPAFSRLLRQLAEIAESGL
The experiment in a line: ITK Degradation HiBiT Assay. The settings on record: MOLT-4, 4 hrs incubation. The experiment is classed as cell-based. As to the method:
Compounds provided herein were assayed in vitro with ITK HiBit cell lines. Compound dilution series (11-point, 5-fold dilutions in DMSO, columns 2-12 with replicate in rows A/B, C/D, E/F, G, and H at 2000× the final required concentrations were prepared in 96-well plate (Falcon, cat. no. 353077). Column 1, rows A-H were control DMSO. The 2000× solutions ranged from 2 mM to 1.024 nM (final assay concentration range 1 μM to 0.512 pM). The 2000×solutions were added to cells in 10 μL volume, for a final DMSO concentration of 0.5% and final assay compound concentration of 1×. For the cells, C-terminal HiBiT-tagged Molt4 cells (ATCC CRL-1552, monoclonal cell line clone 1C10) were plated at 1×10^6 cells/mL, 100 μL/well ([…]) in complete RPMI (10% FBS, 1% L-glutamine). The cells were incubated with compounds 1-25, 31, and 31 for 4 hrs at 32° C./6% CO2.
Following incubation, 100 μL of complete Nano-Glo HiBiT Lytic Detection Reagent (Nano-Glo HiBiT Lytic Buffer with 1:50 Nano-Glo HiBiT Lytic Substrate and 1:100 LgBiT Protein; Promega cat. no. N3O40) was added. Cells were further incubated for 10 min at room temperature. Luminescence units (LU) were read on an EnVision plate reader (Perkin Elmer, 0.1 sec per well). Percent ITK remaining per sample was calculated as follows: […]
Using Graphpad Prism, % ITK remaining values were plotted as a function of compound concentration. To determine DC50 and Dmax values, resulting curves were fit to the Prism curve-fitting equation “log(inhibitor) vs response−Variable slope (four parameters)” (reported best fit value IC50 used as DC50). ITK was measured with antibody-based MSD (Meso-Scale Discovery) assays shown below.
For orientation: The HiBiT peptide binds its large partner to form an active luciferase.

With `Cc1ncsc1-c1ccc(CNC(=O)[C@@H]2C[C@@H](O)CN2C(=O)[C@@H](NC(=O)C2(F)CC2)C(C)(C)C)c(OC2CN(c3ccnc(N4CC([C@@H](c5ccccc5)n5cc(NC(=O)c6n[nH]c7c6C[C@@H]6C(F)(F)[C@]6(C)C7)cn5)C4)c3)C2)c1` [Compound 35, (4aS,5aR)-5,5-difluoro-N-(1-((S)-(1-(4-(3-(2-(((2S,4R)-1-((S)-2-(1-fluorocyclopropane-1-carboxamido)-3,3-dimethylbutanoyl)-4-hydroxypyrrolidine-2-carboxamido)methyl)-5-(4-methylthiazol-5-yl)phenoxy)azetidin-1-yl)pyridin-2-yl)azetidin-3-yl)(phenyl)methyl)-1H-pyrazol-4-yl)-5a-methyl-1,4,4a,5,5a,6-hexahydrocyclopropa[f]indazole-3-carboxamide], the Dmax was 35%. In the case of `Cc1ncsc1-c1ccc([C@H](C)NC(=O)[C@@H]2C[C@@H](O)CN2C(=O)[C@@H](NC(=O)CCCCCCCCCC(=O)N2CC([C@@H](c3ccccc3)n3cc(NC(=O)c4n[nH]c5c4C[C@@H]4C(F)(F)[C@]4(C)C5)cn3)C2)C(C)(C)C)cc1` [Compound 27, (4aS,5aR)-5,5-difluoro-N-(1-((S)-(1-(11-(((S)-1-((2S,4R)-4-hydroxy-2-(((S)-1-(4-(4-methylthiazol-5-yl)phenyl)ethyl)carbamoyl)pyrrolidin-1-yl)-3,3-dimethyl-1-oxobutan-2-yl)amino)-11-oxoundecanoyl)azetidin-3-yl)(phenyl)methyl)-1H-pyrazol-4-yl)-5a-methyl-1,4,4a,5,5a,6-hexahydrocyclopropa[f]indazole-3-carboxamide], the Dmax was 35%.

By Dmax is commonly meant the greatest extent of degradation seen. Read a high Dmax as a fuller loss of target.
